Results on 3 compounds are retold here after patent US8173711B2, “Agent for relief or prevention of xerostomia” (Kaneka Corporation, priority 2007, dated 2012).

Marks after values point to notes of the source that are not given here.

The subject of data set [1] is xerostomia (dry mouth) outpatients. As to the kind of experiment: Saxon test, amount of secreted saliva, coenzyme Q10 capsule intake in patients with xerostomia. Particulars: for Amount of secreted saliva, Increased amount: difference after minus before one-month intake; for Amount of secreted saliva, After intake / Amount of secreted saliva, Before intake: group average; for Amount of secreted saliva, After intake: after one 100 mg capsule every day for one month; for Amount of secreted saliva, Before intake: before intake of one 100 mg capsule every day for one month. Type of data set: in vivo, human. The procedure:
A test subject chews a piece of gauze for 2 minutes. The weight of the gauze piece has been measured in advance. After the 2-minute chewing, the weight of the gauze is measured. An amount of secreted saliva is calculated as a difference between the weights of the gauze piece before and after the 2-minute chewing.
In total 23 xerostomia (dry mouth) outpatients (23 females including 21 Sjogren syndrome patients) were divided into three groups. To one group consisting of 9 patients, one oxidized coenzyme Q10-containing capsule having the composition illustrated in Table 1 (Test food 1, 240 mg per capsule) was administered every day for one month. To another group consisting of another 9 patients, one reduced coenzyme Q10-containing capsule having the composition shown in Table 1 (Test food 2, 240 mg per capsule) was administered every day for one month. The amount of secreted saliva was measured for each group before and after the intake. To the other group consisting of remaining 5 patients, one placebo capsule (Control food, 240 mg per capsule) was administered every day for one month. The amount of secreted saliva was similarly measured before and after the intake.
(§1) The amount of secreted saliva was measured by Saxon test. Namely, a test subject chewed a piece of gauze for 2 minutes. The weight of the gauze piece had been measured in advance. After the 2-minute chewing, the weight of the gauze piece was measured. The amount of secreted saliva was calculated as a difference between the weights of the gauze piece before and after the 2-minute chewing. In the present example, those whose amount of secreted saliva measured by Saxon test was 2.0 g/2 min. or less were determined as xerostomia patients, and those whose amount of secreted saliva was more than that were determined as healthy persons. Tables 2 and 3 illustrate the average values of all subjects of each group.

The subject of data set [2] is healthy persons. As to the kind of experiment: Saxon test, amount of secreted saliva, coenzyme Q10 capsule intake in healthy persons. Type of data set: in vivo, human. The following applies: for Amount of secreted saliva, Increased amount: difference after minus before one-month intake; for Amount of secreted saliva, After intake / Amount of secreted saliva, Before intake: group average; for Amount of secreted saliva, After intake: after one 100 mg capsule every day for one month; for Amount of secreted saliva, Before intake: before intake of one 100 mg capsule every day for one month; for Significant or excessive increase of secreted saliva before versus after intake: one capsule every day for one month. Here is the method: as §1
In total, 57 healthy persons (12 males, 45 females) were collected as volunteers. One oxidized coenzyme Q10-containing capsule having the composition illustrated in Table 1 (Test food 1, 240 mg per capsule) was administered every day for one month to a group consisting of 22 healthy persons (5 males, 17 females), and one reduced coenzyme Q10-containing capsule having the composition illustrated in Table 1 (Test food 2, 240 mg per capsule) was administered every day for one month to another group consisting of 22 healthy persons (5 males, 17 females). The amount of secreted saliva was measured for each group before and after the intake by the same procedure as that in Example 1. To remaining 13 healthy persons (2 males, 11 females), one placebo capsule (Control food, 240 mg per capsule) was administered every day for one month. The amount of secreted saliva was measured before and after the intake.

Data set [3] relates to rats. Particulars: 52 consecutive weeks, 1.2 g/kg/day; cited from earlier work.
Data set [4] concerns Parkinson's disease model mice. Particulars: Non-Patent Document 2; cited from earlier work.

Turning to `COC1=C(OC)C(=O)C(C/C=C(\C)CC/C=C(\C)CC/C=C(\C)CC/C=C(\C)CC/C=C(\C)CC/C=C(\C)CC/C=C(\C)CC/C=C(\C)CC/C=C(\C)CCC=C(C)C)=C(C)C1=O` [Oxidized coenzyme Q10], in data set [1], the “Amount of secreted saliva, Increased amount” value (“Amount … Increased amount” for short) was 0.59 g/2 min; the “Amount of secreted saliva, After intake” value is reported as 1.28* g/2 min; the “Amount of secreted saliva, Before intake” value is 0.69 g/2 min. The “Amount of secreted saliva, After intake” value in data set [1] (listed as oxidized coenzyme Q10) came to 1.28 g/2 min. Further, in data set [2], the “Amount … Increased amount” value turned out to be 0.43 g/2 min; the “Amount of secreted saliva, After intake” value worked out at 6.16 g/2 min; the “Amount of secreted saliva, Before intake” value is given as 5.73 g/2 min; the “Significant or excessive increase of secreted saliva before versus after intake” value was “None of the oxidized coenzyme Q10 capsule administration group, the reduced coenzyme Q10 capsule administration group and the placebo capsule administration group showed a significant or excessive increase”.
On to `COc1c(O)c(C)c(C/C=C(\C)CC/C=C(\C)CC/C=C(\C)CC/C=C(\C)CC/C=C(\C)CC/C=C(\C)CC/C=C(\C)CC/C=C(\C)CC/C=C(\C)CCC=C(C)C)c(O)c1OC` [Reduced coenzyme Q10], for which, in data set [1], the “Amount … Increased amount” value is on record as 0.70 g/2 min; the “Amount of secreted saliva, After intake” value is 1.52* g/2 min; the “Amount of secreted saliva, Before intake” value was found to be 0.82 g/2 min. In data set [1] (listed as reduced coenzyme Q10), the “Amount … Increased amount” value worked out at 0.7 g/2 min and the “Amount of secreted saliva, After intake” value worked out at 1.52 g/2 min. Further, the “Comparison of salivary secretion-increasing effect” value in data set [1] (reduced versus oxidized coenzyme Q10 capsule) is given as “higher effects than oxidized coenzyme Q10”. In addition, in data set [2], the “Amount … Increased amount” value is on record as 0.10 g/2 min; the “Amount of secreted saliva, After intake” value was found to be 3.54 g/2 min; the “Amount of secreted saliva, Before intake” value is listed as 3.44 g/2 min; the “Significant or excessive increase of secreted saliva before versus after intake” value is “None of the oxidized coenzyme Q10 capsule administration group, the reduced coenzyme Q10 capsule administration group and the placebo capsule administration group showed a significant or excessive increase”.
In the case of ubiquinone [Oxidized coenzyme Q], the Toxicity entry in data set [3] is “no evidence of toxicity”. Also, the “Effect on conditions of Parkinson's disease model mice” value in data set [4] was “effects to improve conditions”.
